Results published in patent publication US20260262643A1, “HERBICIDAL BENZOXAZINES” (FMC CORPORATION, priority 2022, published 2026).

Experiments:
[1] = tested on: rice; experiment: Test D flooded paddy test; assay type: in vivo, Oryza sativa; details: 250 g ai/ha, applied to paddy water, visual rating after 13 to 14 days, scale 0 to 100 (0 no effect, 100 complete control)
Method in brief: (§1)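 Plants at the 2-leaf stage were grown in pots flooded to 3 cm, and compound was applied directly into the paddy water, with depth kept throughout. After 13–14 days in a greenhouse, injury was rated visually against untreated controls on a 0–100 scale (100 = complete control); a dash means not tested.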

[2] = tested on: ryegrass, Italian; experiment: Test C postemergence; assay type: in vivo, Lolium multiflorum; details: 10 days, 0 to 100 scale (0 no effect, 100 complete control)
Method in brief: (§2)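 Seeds in loam–sand blend received preemergence directed soil spray of test chemicals in non-phytotoxic solvent with surfactant; postemergence treatment was applied at one- to two-leaf stage (2–10 cm). After 10 days in greenhouse, injury rated visually versus untreated controls, 0 (no effect) to 100 (complete control).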

[3] = tested on: pigweed, palmer; experiment: Test C preemergence; assay type: in vivo, Amaranthus palmeri
Method in brief: as §2

[4] = tested on: soybean; experiment: Test C preemergence; assay type: in vivo, Glycine max
Method in brief: as §2

[5] = tested on: galium; experiment: Test C postemergence; assay type: in vivo, Galium aparine; details: 10 days, 0 to 100 scale (0 no effect, 100 complete control)
Method in brief: as §2

[6] = tested on: barnyardgrass; experiment: Test D flooded paddy test; assay type: in vivo, Echinochloa crus-galli; details: 250 g ai/ha, applied to paddy water, visual rating after 13 to 14 days, scale 0 to 100 (0 no effect, 100 complete control)
Method in brief: as §1

[7] = tested on: wheat; experiment: Test C postemergence; assay type: in vivo, Triticum aestivum; details: 10 days, 0 to 100 scale (0 no effect, 100 complete control)
Method in brief: as §2

[8] = tested on: blackgrass; experiment: Test C preemergence; assay type: in vivo, Alopecurus myosuroides
Method in brief: as §2

[9] = tested on: oat, wild; experiment: Test C preemergence; assay type: in vivo, Avena fatua
Method in brief: as §2

[10] = tested on: foxtail, giant; experiment: Test C preemergence; assay type: in vivo, Setaria faberi
From the text: (§3) Seeds of plant species selected from barnyardgrass (Echinochloa crusgalli), blackgrass (Alopecurus myosuroides), corn (Zea mays), foxtail, giant (giant foxtail, Setaria faberi), green foxtail (Setaria viridis), goosegrass (Eleusine indica), kochia (Bassia scoparia), oat, wild (wild oat, Avena fatua), pigweed, palmer (palmer amaranth, palmer pigweed, Amaranthus palmeri), Pigweed, Redroot (redroot pigweed, Amaranthus retroflexus), ragweed (common ragweed, Ambrosia artemisiifolia), ryegrass, Italian ([…] ryegrass, Lolium multiflorum), soybean (Glycine max), and wheat (Triticum aestivum) were planted into a blend of loam soil and sand and treated preemergence with a directed soil spray using test chemicals formulated in a non-phytotoxic solvent mixture which included a surfactant. At the same time, plants selected from these crops and weed species and also galium (catchweed bedstraw, Galium aparine) and horseweed (Erigeron canadensis) were planted in pots containing the same blend of loam soil and sand and treated with postemergence applications of test chemicals formulated in the same manner. Plants ranged in height from 2 to 10 cm and were in the one- to two-leaf stage for the postemergence treatment. Treated plants and untreated controls were maintained in a greenhouse for 10 days, after which time all treated plants were compared to untreated controls and visually evaluated for injury. Plant response ratings, summarized in Table C, are based on a 0 to 100 scale where 0 is no effect and 100 is complete control. A dash (-) response means no test result.

[11] = tested on: ragweed; experiment: Test C postemergence; assay type: in vivo, Ambrosia artemisiifolia; details: 10 days, 0 to 100 scale (0 no effect, 100 complete control)
Method in brief: as §2

[12] = tested on: kochia; experiment: Test C postemergence; assay type: in vivo, Bassia scoparia; details: 10 days, 0 to 100 scale (0 no effect, 100 complete control)
Method in brief: as §2

[13] = tested on: wheat; experiment: Test C preemergence; assay type: in vivo, Triticum aestivum
Method in brief: as §2

[14] = tested on: ducksalad; experiment: Test D flooded paddy test; assay type: in vivo, Heteranthera limosa; details: 250 g ai/ha, applied to paddy water, visual rating after 13 to 14 days, scale 0 to 100 (0 no effect, 100 complete control)
Method in brief: as §1

[15] = tested on: kochia; experiment: Test C preemergence; assay type: in vivo, Bassia scoparia
Method in brief: as §2

[16] = tested on: ryegrass, Italian; experiment: Test C preemergence; assay type: in vivo, Lolium multiflorum
Method in brief: as §2

[17] = tested on: barnyardgrass; experiment: Test C preemergence; assay type: in vivo, Echinochloa crusgalli
Method in brief: as §2

[18] = tested on: soybean; experiment: Test C postemergence; assay type: in vivo, Glycine max; details: 10 days, 0 to 100 scale (0 no effect, 100 complete control)
Method in brief: as §2

[19] = tested on: foxtail, giant; experiment: Test C postemergence; assay type: in vivo, Setaria faberi; details: 10 days, 0 to 100 scale (0 no effect, 100 complete control)
From the text: as §3

[20] = tested on: oat, wild; experiment: Test C postemergence; assay type: in vivo, Avena fatua; details: 10 days, 0 to 100 scale (0 no effect, 100 complete control)
Method in brief: as §2

[21] = tested on: blackgrass; experiment: Test C postemergence; assay type: in vivo, Alopecurus myosuroides; details: 10 days, 0 to 100 scale (0 no effect, 100 complete control)
Method in brief: as §2

[22] = tested on: corn; experiment: Test C preemergence; assay type: in vivo, Zea mays
Method in brief: as §2

[23] = tested on: pigweed, palmer; experiment: Test C postemergence; assay type: in vivo, Amaranthus palmeri; details: 10 days, 0 to 100 scale (0 no effect, 100 complete control)
Method in brief: as §2

[24] = tested on: sedge, umbrella; experiment: Test D flooded paddy test; assay type: in vivo, Cyperus difformis; details: 250 g ai/ha, applied to paddy water, visual rating after 13 to 14 days, scale 0 to 100 (0 no effect, 100 complete control)
Method in brief: as §1

[25] = tested on: barnyardgrass; experiment: Test C postemergence; assay type: in vivo, Echinochloa crusgalli; details: 10 days, 0 to 100 scale (0 no effect, 100 complete control)
Method in brief: as §2

[26] = tested on: ragweed; experiment: Test C preemergence; assay type: in vivo, Ambrosia artemisiifolia; details: Preemergence, 125 g ai/ha; 0 to 100 scale, 0 no effect, 100 complete control
Method in brief: as §2

[27] = tested on: corn; experiment: Test C postemergence; assay type: in vivo, Zea mays; details: 10 days, 0 to 100 scale (0 no effect, 100 complete control)
Method in brief: as §2

[28] = tested on: horseweed; experiment: Test C postemergence; assay type: in vivo, Erigeron canadensis; details: 10 days, 0 to 100 scale (0 no effect, 100 complete control)
Method in brief: as §2

[29] = 500 g ai/ha, preemergence, 0 to 100 scale (0 no effect, 100 complete control)
[30] = Preemergence, 125 g ai/ha, 0 to 100 scale, 0 no effect, 100 complete control

CC(C)(C)c1ncn(-c2cc(C(=O)N3CC(C(F)(F)F)Oc4c(Cl)cccc43)ccn2)n1 (stereo not drawn) [Compound 322]
Plant response rating, Rice (Flood) [1]: 0
Plant response rating, Ryegrass, Italian ([2]; 500 g ai/ha, postemergence): 40
Plant response rating, Ryegrass, Italian ([2]; Postemergence, 125 g ai/ha): 20
Pigweed, Palmer plant response rating [3, 29]: 90
Plant response rating, Pigweed, Palmer [3, 30]: 40
Soybean plant response rating [4, 29]: 70
Plant response rating, Soybean [4, 30]: 0
Plant response rating, Galium ([5]; 500 g ai/ha, postemergence): 70
Plant response rating, Galium ([5]; Postemergence, 125 g ai/ha): 70
Plant response rating, Barnyardgrass (Flood) [6]: 0
Plant response rating, Wheat ([7]; 500 g ai/ha, postemergence): 20
Plant response rating, Wheat ([7]; Postemergence, 125 g ai/ha): 20
Blackgrass plant response rating [8, 29]: 40
Plant response rating, Blackgrass [8, 30]: 40
Oat, Wild plant response rating [9, 29]: 30
Plant response rating, Oat, Wild [9, 30]: 0
Foxtail, Giant plant response rating [10, 29]: 100
Plant response rating, Foxtail, Giant [10, 30]: 90
Plant response rating, Ragweed ([11]; 500 g ai/ha, postemergence): 50
Plant response rating, Ragweed ([11]; Postemergence, 125 g ai/ha): 40
Plant response rating, Kochia ([12]; 500 g ai/ha, postemergence): 80
Plant response rating, Kochia ([12]; Postemergence, 125 g ai/ha): 60
Wheat plant response rating [13, 29]: 20
Plant response rating, Wheat [13, 30]: 0
Plant response rating, Ducksalad (Flood) [14]: 0
Kochia plant response rating [15, 29]: 40
Plant response rating, Kochia [15, 30]: 20
Ryegrass, Italian plant response rating [16, 29]: 80
Plant response rating, Ryegrass, Italian [16, 30]: 60
Barnyardgrass plant response rating [17, 29]: 90
Plant response rating, Barnyardgrass [17, 30]: 40
Plant response rating, Soybean ([18]; 500 g ai/ha, postemergence): 100
Plant response rating, Soybean ([18]; Postemergence, 125 g ai/ha): 60
Plant response rating, Foxtail, Giant ([19]; 500 g ai/ha, postemergence): 90
Plant response rating, Foxtail, Giant ([19]; Postemergence, 125 g ai/ha): 50
Plant response rating, Oat, Wild ([20]; 500 g ai/ha, postemergence): 30
Plant response rating, Oat, Wild ([20]; Postemergence, 125 g ai/ha): 0
Plant response rating, Blackgrass ([21]; 500 g ai/ha, postemergence): 40
Plant response rating, Blackgrass ([21]; Postemergence, 125 g ai/ha): 10
Corn plant response rating [22, 29]: 30
Plant response rating, Corn [22, 30]: 30
Plant response rating, Pigweed, Palmer ([23]; 500 g ai/ha, postemergence): 90
Plant response rating, Pigweed, Palmer ([23]; Postemergence, 125 g ai/ha): 50
Plant response rating, Sedge, Umbrella (Flood) [24]: 0
Plant response rating, Barnyardgrass ([25]; 500 g ai/ha, postemergence): 50
Plant response rating, Barnyardgrass ([25]; Postemergence, 125 g ai/ha): 40
Plant response rating, Ragweed [26]: 0
Plant response rating, Corn ([27]; 500 g ai/ha, postemergence): 10
Plant response rating, Corn ([27]; Postemergence, 125 g ai/ha): 10
Plant response rating, Horseweed ([28]; 500 g ai/ha, postemergence): 0
Plant response rating, Horseweed ([28]; Postemergence, 125 g ai/ha): 0
